One assay deals with CDK2/cyclin E (Homo sapiens, UniProt P24941). Description: Assay of kinase activity (ADP-Glo). The settings on record: kinase inhibitory activity, read-out: CDK2/E1 IC50. Type of assay: biochemical. In a few lines:
(§1)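 Kinase preincubated 10 min with compound in 50 mM Hepes, 10 mM MgCl2, 0.01% Brij35, 2 mM DTT, then substrate/ATP added for 60 min at 25 °C. ADP formed measured by ADP-Glo luminescence; IC50 by nonlinear concentration-response fitting.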

The target in the next assay is CDK4/cyclin D1 (Homo sapiens, UniProt P11802). Description: Assay of kinase activity (ADP-Glo). To be noted: kinase inhibitory activity. The class given is biochemical. Put shortly: as §1
Sequence of CDK4/cyclin D1 (P11802 whole entry, species assumed): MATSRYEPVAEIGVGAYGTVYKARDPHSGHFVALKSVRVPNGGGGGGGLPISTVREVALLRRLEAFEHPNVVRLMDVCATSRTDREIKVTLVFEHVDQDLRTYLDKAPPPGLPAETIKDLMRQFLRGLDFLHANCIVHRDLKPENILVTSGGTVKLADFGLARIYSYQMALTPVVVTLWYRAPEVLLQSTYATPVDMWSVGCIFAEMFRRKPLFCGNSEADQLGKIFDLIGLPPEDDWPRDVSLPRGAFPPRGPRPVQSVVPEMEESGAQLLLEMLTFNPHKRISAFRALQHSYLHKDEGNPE
Sequence of CDK4/cyclin D1 (P24385 whole entry partner, species assumed): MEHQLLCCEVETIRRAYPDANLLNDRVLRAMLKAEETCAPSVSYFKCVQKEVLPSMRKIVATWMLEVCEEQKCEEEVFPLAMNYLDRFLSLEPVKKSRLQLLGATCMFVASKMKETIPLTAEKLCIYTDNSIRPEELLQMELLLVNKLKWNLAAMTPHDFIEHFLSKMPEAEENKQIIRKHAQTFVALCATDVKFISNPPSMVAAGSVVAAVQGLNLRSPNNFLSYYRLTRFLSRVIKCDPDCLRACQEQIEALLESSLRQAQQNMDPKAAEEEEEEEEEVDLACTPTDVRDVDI
A further assay addresses CDK6/cyclin D3 (Homo sapiens, UniProt Q00534). Description: Assay of kinase activity (ADP-Glo). The class given is biochemical. To be noted: kinase inhibitory activity. In a few lines:
(§2)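 ADP production quantified by luminescence after 60 min kinase reaction at 25 °C, started with substrate/ATP following 10 min enzyme-compound preincubation. Buffer: 50 mM Hepes, 10 mM MgCl2, 0.01% Brij35, 2 mM DTT. IC50 obtained by nonlinear curve fitting of inhibition data.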

A further assay has as its target CDK9/cyclin T1 (Homo sapiens, UniProt P50750). Description: Assay of kinase activity (ADP-Glo). The class given is biochemical. To be noted: kinase inhibitory activity. In a few lines:
as §2

Assay [1] deals with human acute myeloid leukemia MV-4-11 cells. Description: Assay of cell proliferation (CellTiter-Glo). The class given is cell-based. To be noted: MV4-11, 144 h, 6 days, read-out: MV-4-11 IC50 of cell proliferation inhibitory activity. Put shortly:
(§3)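 Cells seeded per line at growth-adapted densities, treated 6 days at 37 °C/5% CO2 with nine 3-fold dilutions (10 µM to 0.1 nM final, 0.5% DMSO). Viability by CellTiter-Glo luminescence; IC50 from four-parameter fit.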

The test system of assay [2] is human breast cancer HCC1806 cells. Description: Assay of cell proliferation (CellTiter-Glo). To be noted: Homo sapiens, 144 h, 6 days, read-out: HCC1806 IC50 of cell proliferation inhibitory activity. The class given is cell-based. In a few lines:
as §3

Assay [3] relates to human gastric cancer MKN1 cells. Description: Assay of cell proliferation (CellTiter-Glo). Type of assay: cell-based. To be noted: Homo sapiens, MKN-1, 144 h; MNK1, 6 days; read-out: MKN1 IC50 of cell proliferation inhibitory activity. In a few lines: as §3
Assay [4] relates to Human ovarian cancer OVCAR3 cells. Description: Assay of cell proliferation (CellTiter-Glo). The class given is cell-based. To be noted: Homo sapiens, OVCAR-3, 144 h, 6 days, read-out: OVCAR3 IC50 of cell proliferation inhibitory activity. In a few lines:
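OVCAR3 cells, 2000/well in RPMI 1640 with 20% FBS, treated with nine 3-fold dilutions from 10 µM to 0.1 nM (0.5% DMSO) for 6 days at 37 °C. Viability by CellTiter-Glo luminescence; IC50 by four-parameter fit.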

SMILES strings stand for the structures.

Sequence of CDK9/cyclin T1 (P50750 whole entry, species assumed): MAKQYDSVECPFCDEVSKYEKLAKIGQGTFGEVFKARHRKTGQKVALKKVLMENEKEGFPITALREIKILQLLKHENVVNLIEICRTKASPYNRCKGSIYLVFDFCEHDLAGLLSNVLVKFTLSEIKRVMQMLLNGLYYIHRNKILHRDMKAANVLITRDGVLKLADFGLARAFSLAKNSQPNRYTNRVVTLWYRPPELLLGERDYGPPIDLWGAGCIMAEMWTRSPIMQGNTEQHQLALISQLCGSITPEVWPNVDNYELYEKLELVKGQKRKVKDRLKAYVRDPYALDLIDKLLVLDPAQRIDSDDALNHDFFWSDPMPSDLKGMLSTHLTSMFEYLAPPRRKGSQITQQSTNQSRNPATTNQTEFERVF
Sequence of CDK9/cyclin T1 (O60563 whole entry partner, species assumed): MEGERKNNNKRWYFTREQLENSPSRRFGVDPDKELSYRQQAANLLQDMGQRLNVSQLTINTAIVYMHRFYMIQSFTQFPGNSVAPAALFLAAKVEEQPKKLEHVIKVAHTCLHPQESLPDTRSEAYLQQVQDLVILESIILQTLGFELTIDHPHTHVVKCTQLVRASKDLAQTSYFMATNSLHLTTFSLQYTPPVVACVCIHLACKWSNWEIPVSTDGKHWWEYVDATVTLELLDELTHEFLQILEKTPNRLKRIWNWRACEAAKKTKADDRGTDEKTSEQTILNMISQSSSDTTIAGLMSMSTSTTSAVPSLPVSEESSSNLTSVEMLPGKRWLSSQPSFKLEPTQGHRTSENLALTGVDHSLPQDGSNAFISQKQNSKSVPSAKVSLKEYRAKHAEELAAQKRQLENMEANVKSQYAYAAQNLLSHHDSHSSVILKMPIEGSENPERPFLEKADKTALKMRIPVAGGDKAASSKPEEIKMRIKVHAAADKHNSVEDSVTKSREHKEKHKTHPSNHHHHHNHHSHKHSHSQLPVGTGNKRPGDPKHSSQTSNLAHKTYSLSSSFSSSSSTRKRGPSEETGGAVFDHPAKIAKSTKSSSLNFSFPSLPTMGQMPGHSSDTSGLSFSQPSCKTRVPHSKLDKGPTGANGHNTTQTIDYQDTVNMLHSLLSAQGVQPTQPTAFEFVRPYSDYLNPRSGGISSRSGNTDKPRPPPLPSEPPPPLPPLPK
Sequence of CDK6/cyclin D3 (Q00534 whole entry, species assumed): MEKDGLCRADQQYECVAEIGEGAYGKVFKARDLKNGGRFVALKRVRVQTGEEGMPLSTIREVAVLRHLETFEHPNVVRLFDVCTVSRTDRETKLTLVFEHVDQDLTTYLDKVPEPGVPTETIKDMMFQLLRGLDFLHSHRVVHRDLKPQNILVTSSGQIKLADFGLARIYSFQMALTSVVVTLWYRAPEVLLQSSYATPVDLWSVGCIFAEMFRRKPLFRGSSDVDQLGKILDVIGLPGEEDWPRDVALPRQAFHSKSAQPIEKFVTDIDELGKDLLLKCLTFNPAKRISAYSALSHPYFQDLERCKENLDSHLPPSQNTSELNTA
Sequence of CDK6/cyclin D3 (P30281 whole entry partner, species assumed): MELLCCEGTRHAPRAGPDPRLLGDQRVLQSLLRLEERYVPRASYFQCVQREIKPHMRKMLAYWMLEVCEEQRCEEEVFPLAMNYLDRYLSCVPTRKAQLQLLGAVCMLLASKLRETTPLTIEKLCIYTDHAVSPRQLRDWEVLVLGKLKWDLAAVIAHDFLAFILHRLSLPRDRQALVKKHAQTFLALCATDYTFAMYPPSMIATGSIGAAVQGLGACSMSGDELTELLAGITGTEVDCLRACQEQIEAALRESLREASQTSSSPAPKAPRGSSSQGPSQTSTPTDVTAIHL

As to `CN(C)[C@H]1CCN(C(=O)c2ccc(Nc3ncc4ccc5nnn([C@@H]6CCC[C@@]6(C)O)c5c4n3)cc2)C1` [Example I-64, ((S)-3-(Dimethylamino)pyrrolidin-1-yl)(4-((1-((1R,2R)-2-hydroxy-2-methylcyclopentyl)-1H-[1,2,3]triazolo[4,5-H]quinazolin-8-yl)amino)phenyl)methanone], the IC50 at CDK2/cyclin E was 0.1 nM; against CDK4/cyclin D1, 0.6 nM; against CDK6/cyclin D3 it was 4 nM; against CDK9/cyclin T1, 3 nM; in assay [1], 2 nM; in assay [2] it was 12 nM. For the same compound, the IC50 in assay [3] came out at 3 nM; in assay [4], 7 nM.

Regarding `CC(C)n1nnc2ccc3cnc(Nc4ccc(C(=O)N5CCC(F)CC5)cc4)nc3c21` [Example I-18, (4-Fluoropiperidin-1-yl)(4-((1-isopropyl-1H-[1,2,3]triazolo[4,5-H]quinazolin-8-yl)amino)phenyl)metha none], the IC50 was found to be 2 nM at CDK2/cyclin E; 5 nM at CDK4/cyclin D1; 35 nM against CDK6/cyclin D3; 25 nM against CDK9/cyclin T1; 23 nM in assay [1]; 247 nM in assay [2]. The IC50 came out at 129 nM in assay [3] and 214 nM in assay [4].

Regarding `C[C@@]1(O)CCC[C@H]1n1nnc2ccc3cnc(Nc4ccc(C(=O)N5CCCNCC5)cc4)nc3c21` [Example I-69, (1,4-diazepan-1-yl)(4-((1-((1R,2R)-2-hydroxy-2-methylcyclopentyl)-1H-[1,2,3]triazolo[4,5-H]quinazolin-8-yl)amino)phenyl)methanone], the IC50 on CDK2/cyclin E is 0.05 nM; against CDK4/cyclin D1, 0.5 nM; against CDK6/cyclin D3, 3 nM; against CDK9/cyclin T1, 2 nM; in assay [1], 3 nM; in assay [2], 20 nM. The values for the IC50 in assay [3] and in assay [4] were 6 nM and 15 nM, respectively.

For `CC(C)n1nnc2ccc3cnc(Nc4ccc(C(=O)N5CCCN(C)CC5)cc4)nc3c21` [Example I-34, (4-((1-Isopropyl-1H-[1,2,3]triazolo[4,5-H]quinazolin-8-yl)amino)phenyl)(4-methyl-1,4-diazepan-1-yl)methanone], the IC50 at CDK2/cyclin E was found to be 0.09 nM; at CDK4/cyclin D1, 0.7 nM; against CDK6/cyclin D3, 19 nM; against CDK9/cyclin T1, 2 nM; in assay [1] it was 2 nM; in assay [2], 6 nM. In addition, the IC50 in assay [3] worked out at 5 nM; in assay [4], 7 nM.

With `CC(C)n1nnc2ccc3cnc(Nc4ccc(C(=O)N5CC[C@@H](N(C)C)C5)cc4)nc3c21` [Example I-11, (R)-(3-(Dimethylamino)pyrrolidin-1-yl)(4-((1-isopropyl-1H-[1,2,3]triazolo[4,5-H]quinazolin-8-yl)amino)phenyl)metha none], the IC50 at CDK2/cyclin E turned out to be 0.08 nM; against CDK4/cyclin D1, 0.7 nM; against CDK6/cyclin D3 it was 6 nM; against CDK9/cyclin T1 it was 2 nM; in assay [1] it was 4 nM; in assay [2], 122 nM. In addition, the IC50 in assay [3] turned out to be 29 nM; in assay [4] it was 148 nM.

`CC(C)n1nnc2ccc3cnc(Nc4ccc(C(=O)N5CCCNCC5)cc4)nc3c21` [Example I-33, (1,4-Diazepan-1-yl)(4-((1-isopropyl-1H-[1,2,3]triazolo[4,5-H]quinazolin-8-yl)amino)phenyl)metha none]: the IC50 is 0.2 nM at CDK2/cyclin E; 1 nM at CDK4/cyclin D1; 26 nM at CDK6/cyclin D3; 45 nM on CDK9/cyclin T1; 2 nM in assay [1]; 19 nM in assay [2]. The IC50 is 3 nM in assay [3] and 5 nM in assay [4].

In the case of `CN1CCCN(C(=O)c2ccc(Nc3ncc4ccc5nnn([C@@H]6CCC[C@@]6(C)O)c5c4n3)cc2)CC1` [Example I-70, (4-((1-((1,2R)-2-hydroxy-2-methylcyclopentyl)-1H-[1,2,3]triazolo[4,5-H]quinazolin-8-yl)amino)phenyl)(4-methyl-1,4-diazepan-1-yl)methanone], the IC50 on CDK2/cyclin E was 0.06 nM; at CDK4/cyclin D1, 0.7 nM; on CDK6/cyclin D3, 2 nM; against CDK9/cyclin T1, 2 nM; in assay [1], 1 nM; in assay [2] it was 3 nM. Further, the IC50 was determined as 1 nM in assay [3] and 2 nM in assay [4].

`CC(C)n1nnc2ccc3cnc(Nc4ccc(C(=O)N5CCN[C@H](C)C5)cc4)nc3c21` [Example I-21, (R)-(4-((1-Isopropyl-1H-[1,2,3]triazolo[4,5-H]quinazolin-8-yl)amino)phenyl)(3-methylpiperazin-1-yl)methanone]: the IC50 was found to be 0.5 nM at CDK2/cyclin E; 1 nM on CDK4/cyclin D1; 14 nM against CDK6/cyclin D3; 2 nM against CDK9/cyclin T1; 4 nM in assay [1]; 112 nM in assay [2]. Besides, the values for the IC50 in assay [3] and in assay [4] were 31 nM and 35 nM, respectively.

As for `C[C@@H](n1nnc2ccc3cnc(Nc4ccc(C(=O)N5CCCN(C)CC5)cc4)nc3c21)C(C)(C)O` [Example I-61, (R)-(4-((1-(3-Hydroxy-3-methylbutan-2-yl)-1H-[1,2,3]triazolo[4,5-H]quinazolin-8-yl)amino)phenyl)(4-methyl-1,4-diazepan-1-yl)methanone], the IC50 at CDK2/cyclin E is 0.9 nM; against CDK4/cyclin D1, 1 nM; against CDK6/cyclin D3, 2 nM; against CDK9/cyclin T1 it was 16 nM; in assay [1] it was 4 nM; in assay [2], 8 nM. The results for the IC50 in assay [3] and in assay [4] were 8 nM and 11 nM, respectively.

As for `CC(C)N[C@H]1CCN(C(=O)c2ccc(Nc3ncc4ccc5nnn(C(C)C)c5c4n3)cc2)C1` [Example I-8, (S)-(4-((1-Isopropyl-1H-[1,2,3]triazolo[4,5-H]quinazolin-8-yl)amino)phenyl)(3-(isopropylamino)pyrrolidin-1-yl)methanone], the IC50 at CDK2/cyclin E came out at 0.1 nM; at CDK4/cyclin D1, 0.8 nM; on CDK6/cyclin D3, 19 nM; at CDK9/cyclin T1, 3 nM; in assay [1], 2 nM; in assay [2] it was 16 nM. In addition, the IC50 is 4 nM in assay [3] and 7 nM in assay [4].

`C[C@@H](n1nnc2ccc3cnc(Nc4ccc(C(=O)N5CCS(=O)(=O)CC5)cc4)nc3c21)C(C)(C)O` [Example I-59, (R)-(1,1-Dioxothiomorpholino)(4-((1-(3-hydroxy-3-methylbutan-2-yl)-1H-[1,2,3]triazolo[4,5-H]quinazolin-8-yl)amino)phenyl)methanone]: the IC50 came out at 1 nM on CDK2/cyclin E; 2 nM against CDK4/cyclin D1; 15 nM against CDK6/cyclin D3; 46 nM on CDK9/cyclin T1; 18 nM in assay [1]; 543 nM in assay [2]. For the same compound, the IC50 amounted to 127 nM in assay [3] and 389 nM in assay [4].

In the case of `CC(C)n1nnc2ccc3cnc(Nc4ccc(C(=O)N5CC[C@@H](F)C5)cc4)nc3c21` [Example I-2, (R)-(3-Fluoropyrrolidin-1-yl)(4-((1-isopropyl-1H-[1,2,3]triazolo[4,5-H]quinazolin-8-yl)amino)phenyl)methanone], the IC50 was found to be 0.3 nM at CDK2/cyclin E; 2 nM on CDK4/cyclin D1; 12 nM against CDK6/cyclin D3; 8 nM at CDK9/cyclin T1; 15 nM in assay [1]; 175 nM in assay [2]. In addition, the IC50 in assay [3] turned out to be 46 nM; in assay [4] it was 94 nM.

Consider `CC(C)n1nnc2ccc3cnc(Nc4ccc(C(=O)N5C[C@@H](C)N[C@@H](C)C5)cc4)nc3c21` [Example I-23, ((3R,5S)-3,5-dimethylpiperazin-1-yl)(4-((1-isopropyl-1H-[1,2,3]triazolo[4,5-H]quinazolin-8-yl)amino)phenyl)metha none], for which the IC50 turned out to be 0.4 nM on CDK2/cyclin E; 3 nM on CDK4/cyclin D1; 35 nM at CDK6/cyclin D3; 24 nM against CDK9/cyclin T1; 4 nM in assay [1]; 112 nM in assay [2]. The IC50 was 57 nM in assay [3] and 73 nM in assay [4].

With `CN[C@H]1CCN(C(=O)c2ccc(Nc3ncc4ccc5nnn(C(C)C)c5c4n3)cc2)C1` [Example I-6, (S)-(4-((1-Isopropyl-1H-[1,2,3]triazolo[4,5-H]quinazolin-8-yl)amino)phenyl)(3-(methylamino)pyrrolidin-1-yl)methanone], the IC50 on CDK2/cyclin E was 0.06 nM; against CDK4/cyclin D1, 0.5 nM; at CDK6/cyclin D3 it was 3 nM; at CDK9/cyclin T1 it was 2 nM; in assay [1], 2 nM; in assay [2], 73 nM. Besides, the figures for the IC50 in assay [3] and in assay [4] were 7 nM and 26 nM, respectively.

The record behind these values is patent EP4711369A1, “1H-[1,2,3]TRIAZOLO[4,5-H]QUINAZOLINE COMPOUNDS AS PROTEIN KINASE INHIBITORS” (Chengdu Cynogen Bio-Pharmaceutical Technology Co., Ltd., priority 2023, dated 2024).
